Data set [1] relates to Bacillus paralicheniformis NNS4-3. The experiment in a line: Antibiotic susceptibility test of NNS4-3 (disc diffusion). The conditions noted are these: disc diffusion on MH agar, 30 °C, 24 h, triplicate; result in words (Figure S1). In kind it is cell-based. The protocol: The susceptibility of NNS4-3 to the standard antibiotics was studied by a disc diffusion assay. The isolate was inoculated at 30 °C with shaking at 150 rpm for 24 h in ZM broth. The culture was adjusted to 0.1 OD at 625 nm before being spread onto the MH agar. The antibiotic discs (Oxoid Ltd., Hampshire, UK) of ciprofloxacin (5 µg), piperacillin (100 µg) combined with tazobactam (10 µg), imipenem (10 µg), ceftriaxone (30 µg), cefoxitin (30 µg), doxycycline (30 µg), vancomycin (30 µg), erythromycin (15 µg), and gentamicin (10 µg) were placed on the culture-seeded agar and then incubated at 30 °C for 24 h. The susceptibility tests were conducted in triplicate. The inhibition zones were presented as mean ± SD.
(In general: Agar diffusion results depend on both activity and mobility in agar.)

The conditions of data set [2]: bacitracin from Bacillus paralicheniformis UBBLi30, ref [42], cited from earlier work.
In data set [3] the test system is MRSA strain MW2. The conditions noted are these: ref [41]; cited from earlier work.
Data set [4] has as its system MSSA strain RN4420. Particulars: ref [41]; cited from earlier work. The text has this:
The literature search could support the observed difference in MIC between MSSA and MRSA strains.

For data set [5], the system named is S. aureus TISTR 517. The experiment in a line: SEM of treated cells (morphological changes). In kind it is cell-based, Staphylococcus aureus. The conditions noted are these: 1× MIC, 18 h incubation, 20,000× magnification. Here is the method:
(§1) The treatment effect of NNS4-3 AMP on tested bacterial cells was investigated by observing morphological changes under SEM. S. aureus TISTR 517 and MRSA strain 2468 were precultured in MH broth for 18 h before being centrifuged to harvest the cell pellet. Cell pellets of both strains were washed with 0.85% sterile NaCl solution 3 times to remove exopolysaccharide. The washed cells were then dispersed in CAMHB to adjust cell turbidity to 0.1 OD at 625 nm. The prepared cells were diluted to 5 × 10^5 CFU/mL with CAMHB before being treated with NNS4-3 AMP. […] The sample for SEM micrography was prepared by fixing the bacterial sample in 2.5% glutaraldehyde in 0.1 M phosphate buffer pH 7.2 for 24 h before ethanol dehydration of the sample. The complete ethanol removal from the prepared sample was conducted by a critical point drying machine (Quorum Technologies Ltd., Lewes, East Sussex, UK).

In data set [6] the test system is MRSA strain 2468. The experiment in a line: SEM of treated cells (morphological changes). The data set is classed as cell-based, Staphylococcus aureus. The conditions noted are these: 1× MIC, 18 h incubation, 20,000× magnification. Here is the method:
as §1

Data set [7] has as its system S. aureus TISTR 517. Kind of data set: microbe, parasite or virus in culture. The conditions noted are these: Staphylococcus aureus. The data set is classed as cell-based, Staphylococcus aureus. Here is the method:
(§2) The MIC and MBC of the purified peptide of NNS4-3 were determined against various strains of S. aureus. The broth microdilution method followed the guidance provided by the Clinical and Laboratory Standards Institute (CLSI). Pathogenic bacteria, such as S. aureus TISTR 517 and MRSA strains 142, 1096, and 2468, were used as test strains and cultured on MH agar at 37 °C for 18 h. A single colony of each tested bacterium was suspended in 0.85% NaCl until its turbidity reached an OD of 0.1 at 625 nm (1 × 10^8 CFU/mL). The bacterial cells were diluted to 5 × 10^6 CFU/mL using cation-adjusted Mueller Hinton broth (CAMHB). The diluted cell suspension (10 µL) was transferred to each well of a 96-well plate. With a total volume of 100 µL in each well, the purified AMP was added to each well to obtain final concentrations between 0.125 and 64 µg/mL. Standard antibiotics (vancomycin and cefoxitin) and antibiotic-free samples were used as positive and negative controls, respectively. The 96-well plate was incubated at 37 °C for 24 h. The experiment was carried out in triplicate for each strain. […] Subsequently, 100 µL of each dilution was spread on MH agar and then incubated at 37 °C for 24 h. The MBC was identified as the lowest concentration at which no bacterial colony growth was observed on the plate.

Data set [8] has as its system MRSA strain 1096. Kind of data set: microbe, parasite or virus in culture. The conditions noted are these: Staphylococcus aureus, MRSA, 24 h. In kind it is cell-based, Staphylococcus aureus. Here is the method: as §2
Data set [9] relates to MRSA strain 142. The experiment in a line: microbe, parasite or virus in culture. In kind it is cell-based, Staphylococcus aureus. The conditions noted are these: Staphylococcus aureus, MRSA, 24 h. Here is the method:
as §2

Data set [10] relates to MRSA strain 2468. Kind of data set: microbe, parasite or virus in culture. The data set is classed as cell-based, Staphylococcus aureus. The conditions noted are these: Staphylococcus aureus, MRSA, 24 h. The protocol:
as §2

Data set [11] has as its system S. aureus TISTR 517. Kind of data set: Agar well diffusion assay. In kind it is cell-based, Staphylococcus aureus. The conditions noted are these: 100 µL CFS of 3-day culture in 9 mm wells, controls 30 µg, MH agar, 37 °C, 18 h, mean ± SD, n = 3. The protocol:
(§3) The active isolates from the agar overlay assay were inoculated in broth. The types of broth media were the same as those used during the initial isolation. The liquid cultures were incubated at 30 °C with shaking at 150 rpm for 18 h. The optical density of the starter culture was adjusted to a turbidity of 0.1 OD at 625 nm with 0.85% sterile NaCl solution before transferring 1 mL of the culture into 49 mL of fresh broth. The inoculum was then incubated at 30 °C and 150 rpm for 3 days. The cell-free supernatant (CFS) was collected by centrifugation at 10,000× g at 4 °C for 15 min and filtered using a 0.2 µm sterile cellulose acetate syringe filter (Sigma-Aldrich, Warren, MI, USA). The antibacterial activity of the isolates was studied using S. aureus TISTR 517, obtained from the Thailand Institute of Scientific and Technological Research (TISTR), Thailand. The three strains of MRSA (strains 142, 1096, and 2468) were kindly provided by the medical technology laboratory of the School of Allied Health Sciences, Walailak University, Thailand. The pathogenic bacteria were incubated at 37 °C for 18 h on MH agar. The microbial indicators were prepared to a turbidity equivalent to 0.1 OD at 625 nm before being spread on MH agar. The CFS of 100 µL was aseptically transferred to 9 mm diameter wells, followed by an incubation period at 37 °C for 18 h. Cefoxitin (30 µg) and vancomycin (30 µg) (Sigma-Aldrich Co., St. Louis, MO, USA) were employed as positive controls. The experiment was conducted in triplicate and the mean ± SD of the diameters of the inhibition zones was measured.
(§4) The sample was incubated at 30 °C with shaking at 150 rpm for 7 days. The OD at 625 nm of the inoculum was measured and the CFS was collected at 0, 4, 8, 12, 16, 20, and 24 h on the first day of incubation and then once a day until the seventh day of incubation. The bacterial growth was observed by measuring OD at 625 nm and the collected CFS at all time points was evaluated for antibacterial activity using the agar well diffusion assay against S. aureus TISTR 517 and three strains of MRSA. The experiment was performed in triplicate. […] The kinetics of the antimicrobial compounds’ production curve with mean ± SD were presented.

Data set [12] relates to MRSA strain 1096. Kind of data set: Agar well diffusion assay. In kind it is cell-based, Staphylococcus aureus. Particulars: 100 µL CFS of 3-day culture in 9 mm wells, controls 30 µg, MH agar, 37 °C, 18 h, mean ± SD, n = 3. The protocol: as §3, §4
Data set [13] has as its system MRSA strain 142. The experiment in a line: Agar well diffusion assay. The data set is classed as cell-based, Staphylococcus aureus. Particulars: 100 µL CFS of 3-day culture in 9 mm wells, controls 30 µg, MH agar, 37 °C, 18 h, mean ± SD, n = 3. The protocol:
as §3, §4

Data set [14] deals with MRSA strain 2468. Kind of data set: Agar well diffusion assay. The data set is classed as cell-based, Staphylococcus aureus. Particulars: 100 µL CFS of 3-day culture in 9 mm wells, controls 30 µg, MH agar, 37 °C, 18 h, mean ± SD, n = 3. The protocol:
as §3, §4

Where [15] appears, read: broth microdilution, CAMHB, 37 °C, 0.125-64 µg/mL, triplicate, read-out: MIC.

In brackets after ≈: the same amount, converted by molar mass. Where two headings read alike, the source gives them in different places. Non-standard residues stand in square brackets, D forms with d. No end group written: not given here. Orn = NCCC[C@H](N)C(=O)O Where only a bound is given, the exact number is not on record here.

On to `C[C@H]1c2cccc(O)c2C(=O)C2=C(O)[C@]3(O)C(=O)C(C(N)=O)=C(O)[C@@H](N(C)C)[C@@H]3[C@@H](O)[C@@H]21` [doxycycline], for which the “antibiotic susceptibility of the NNS4-3 isolate” value (from here on “antibiotic susceptibility”) in data set [1] is “moderate to high susceptibility”.
For `CC[C@H]1OC(=O)[C@H](C)[C@@H](O[C@H]2C[C@@](C)(OC)[C@@H](O)[C@H](C)O2)[C@H](C)[C@@H](O[C@@H]2O[C@H](C)C[C@H](N(C)C)[C@H]2O)[C@](C)(O)C[C@@H](C)C(=O)[C@H](C)[C@@H](O)[C@]1(C)O` [erythromycin], the “antibiotic susceptibility” value in [1] was “highest susceptibility”.
Turning to `C[C@@H](O)[C@H]1C(=O)N2C(C(=O)O)=C(SCCN=CN)C[C@H]12` [imipenem], the “antibiotic susceptibility” value in data set [1] is recorded as “high potency inhibition”.
Turning to “LCLEIK[Orn]IFHDN [bacitracin, AMP constructed by non-ribosomal peptide synthesis; literature values]”, the activity after autoclaving in [2] (autoclaving for 15 min) is on record as 80%. Moreover, the “activity at pH 14” value in data set [2] (pH 14, 1 h) is recorded as “lost”. Moreover, the MIC in data set [3] is 32 mg/L; in [4], 64 mg/L.
On to `O=C(O)c1cn(C2CC2)c2cc(N3CCNCC3)c(F)cc2c1=O` [ciprofloxacin], for which, in data set [1], the “antibiotic susceptibility” value is reported as “high potency inhibition”.
On to `CO[C@@]1(NC(=O)Cc2cccs2)C(=O)N2C(C(=O)O)=C(COC(N)=O)CS[C@@H]21` [Cefoxitin], for which the “morphological changes under SEM” value in data set [5] was “cellular lysis”; in [6], “good tolerance”. Also, the MIC in [7] (TISTR517, broth microdilution, CAMHB, 37 °C, 24 h, 0.125-64 µg/mL, triplicate, read-out: MIC) is 2 mg/L (≈ 4.68 µM); in data set [8] (setting [15]), above 64 mg/L; in [9] (setting [15]) it was above 64 mg/L; in [10] (setting [15]), above 64 mg/L. For the same molecule, the MBC in [7] (TISTR517, plated on MH agar after MIC, 37 °C, 24 h, triplicate, read-out: MBC) was 2 mg/L (≈ 4.68 µM). For the same molecule, the “antibiotic susceptibility” value in [1] is given as “moderate to high susceptibility”. The “Zone of Inhibition” value in [11] stood at 35.87 ± 0.46 mm; in data set [12], 0.00 ± 0.00 mm; in data set [13], 0.00 ± 0.00 mm; in data set [14], 0.00 ± 0.00 mm.
On to `CNC(C)C1CCC(N)C(OC2C(N)CC(N)C(OC3OCC(C)(O)C(NC)C3O)C2O)O1` (stereo not shown) [gentamicin], for which the “antibiotic susceptibility” value in data set [1] is given as “moderate to high susceptibility”.
On the same count and under the same terms, with `CO/N=C(\C(=O)N[C@@H]1C(=O)N2C(C(=O)O)=C(CSc3nc(=O)c(=O)[nH]n3C)CS[C@H]12)c1csc(N)n1` [ceftriaxone] the entry was “tolerated”.
For the molecule `CN[C@H](CC(C)C)C(=O)N[C@H]1C(=O)N[C@@H](CC(N)=O)C(=O)N[C@H]2C(=O)N[C@H]3C(=O)N[C@H](C(=O)N[C@H](C(=O)O)c4cc(O)cc(O)c4-c4cc3ccc4O)[C@H](O)c3ccc(c(Cl)c3)Oc3cc2cc(c3O[C@@H]2O[C@H](CO)[C@@H](O)[C@H](O)[C@H]2O[C@H]2C[C@](C)(N)[C@H](O)[C@H](C)O2)Oc2ccc(cc2Cl)[C@H]1O` [Vancomycin], the “morphological changes under SEM” value is recorded as “cellular lysis” in data set [5] and “irregular shape” in data set [6]. The MBC in data set [7] (TISTR517, 24 h) amounted to 2 mg/L (≈ 1.38 µM); in data set [8], 2 mg/L (≈ 1.38 µM); in [9] it was 2 mg/L (≈ 1.38 µM); in [10], 2 mg/L (≈ 1.38 µM). Besides, the MIC in data set [7] (TISTR517, 24 h) came to 2 mg/L (≈ 1.38 µM); in data set [8], 2 mg/L (≈ 1.38 µM); in data set [9] it was 2 mg/L (≈ 1.38 µM); in data set [10], 2 mg/L (≈ 1.38 µM). The “antibiotic susceptibility” value in data set [1] is given as “moderate to high susceptibility”. The “Zone of Inhibition” value is given as 23.37 ± 1.27 mm in data set [11], 24.38 ± 0.51 mm in data set [12], 24.13 ± 1.27 mm in data set [13] and 24.64 ± 1.02 mm in data set [14].

These data come from paper PMC11350868, “A Novel Bacitracin-like Peptide from Mangrove-Isolated Bacillus paralicheniformis NNS4-3 against MRSA and Its Genomic Insights” (Antibiotics, 2024).
